Experimental data as given in PMC5630639 (Scientific Reports, 2017).

Experiments:
[1] = system: colchicine-binding site of β-tubulin; assay: EBI competition assay; type: cell-based, human; conditions: preincubation 0.25 and 5 μM, 2 h; EBI 100 μM
Protocol: Six-well plates were seeded with MGC-803 cells at 5 × 10^5 cells per well. […] After 2 h, the cells were harvested and cell extracts were prepared for Western blot analysis. 20 μg of proteins was subjected to gel electrophoresis using 10% polyacrylamide gels. The proteins were transferred onto PVDF membranes, then blocked by 5% nonfatmilk for 1 h, and subsequently incubated with anti-β-tubulin antibody for 16 h at 4 °C. Next, the membranes were washed extensively and immunoreactive proteins were finally detected by chemiluminescence.

MGC-803 cells [2] = assay: Transwell cell migration assay; type: cell-based, human; conditions: 24 h (control 29.4)
Protocol: (§1) In a transwell test, the average numbers of migrated cells in fields of control, 0.1 and 0.2 μM 28 treated MGC-803 cells were 29.4, 22.4 and 16.6, respectively (Fig. 6B and C). Based on the results from these tests, we next examined the protein expression of EMT-related makers such as E-cadherenin, N-cadherenin, ZO-1 and Vementin[55].
The test was performed in a transwell plate (Corning). MGC-803 cells were added to the upper chamber of a transwell plate. Control and different concentrations of 28 solutions were added to both upper and bottom chambers. Then the transwell plate was cultured at 37 °C in a humidified incubator containing 5% CO2 for 24 h. The next day, all contents in the upper chamber were removed and wiped by cotton buds. Alcohol was used to fix, and the crystal violet was used to stain the transwell for 30 min. After washed by PBS the cell chambers were observed and photos taken. The cell number of the migrated cells through the transwell was calculated by counting 5 visual fields of each group (P < 0.05)[55],[56].

MGC-803 cells [3] = assay: Western blot of EMT-related markers; type: cell-based, human
Protocol: as §1

MGC-803 cells [4] = assay: Western blotting of apoptosis-related proteins; type: cell-based, human; conditions: concentration-dependent
Protocol: (§2) We next evaluated whether 28 induces apoptosis in MGC-803 cells by flow cytometry analysis of propidium iodide (PI) and Annexin V stained cells. […] When MGC-803 cells were incubated with 28 at 0.1, 0.2, and 0.3 μM for 24 h, the percentages of early apoptotic cells were 12.4%, 40.5%, and 49.7%, respectively and those of late apoptotic cells 2.1%, 10.1%, and 9.4%, respectively (Fig. 4A). Bcl-2 family proteins were crucial components of mitochondrial stress-induced cellular apoptosis. Thus, the expression of apoptosis-related proteins was also determined.
(§3) An Annexin V-FITC/PI kit (KeyGEN BioTECH, Nanjing, China) was used to detect apoptosis. Cells were seeded in 6-well plates and treated with 0, 0.1, 0.2 and 0.3 µM of 28 for 24 h. Then MGC-803 cells were collected and suspended in binding buffer containing Annexin V-FITC (0.5 mg/mL) and PI (0.5 mg/mL) and incubated in dark for 20 min and analyzed by flow cytometry (Becton, Dickinson and Company, NJ). The apoptosis related proteins of western blot analysis were conducted according to our previously reported method[31],[32].

A549 cells = assay: CCK-8 proliferation assay, A549; type: cell-based, human; conditions: Homo sapiens, A549; 48 h, CCK-8, mean ± SD
Protocol: (§4) All synthesized β-lactam-azide derivatives were evaluated for their antiproliferative activity against three cancer cell lines (MGC-803, MCF-7, A549) using CCK-8 proliferation assay. The well-known anticancer drug CA-4P was used as a control[36],[37].
(§5) MGC-803 cell line was obtained from the Chinese Academy of Sciences (Shanghai, China). MCF-7 and A549 were from the National Cell Center, China. MGC-803 cells were cultured in DMEM culture medium (DMEM, Biological Industries, Kibbutz Beit Haemek, Israel). A549 and MCF-7 cells were cultured in 1640 medium (1640, Biological Industries, Kibbutz Beit Haemek, Israel). All medium were supplemented with 10% fetal bovine serum, 100 U/ml penicillin (North China Pharmaceutical group Co.), and 100 µg/ml streptomycin (North China Pharmaceutical group Co.). All cells were cultured at 37 °C in a humidified incubator containing 5% CO2.
Synthesized analogues used in the study were dissolved in 100% cell culture grade DMSO and the final concentration of DMSO as <0.1% for testing on cancer cell lines. Cytotoxicity assays were performed on the human gastric carcinoma cell line MGC-803, the human mammary carcinoma cell line MCF-7, the human lung carcinoma cell line A549. Cells (3500–5000/well) were seeded into 96-well plates in 100 µL of culture medium. The cells were treated in triplicate with a gradient concentration of testing compounds and incubated at 37 °C, 5% CO2 for 48 h. For all cell lines, CCK-8 assay was performed to measure cytotoxic effects. The absorbance was measured using a microplate reader (BioTek Instrument, Inc. Vermont, USA) with a test wavelength of 450 nm. The absorbance levels were corrected against untreated control absorbance values. All experiments were performed in triplicate and SPSS17.0 was used for data analysis to obtain IC50 values.

MGC-803 cells [5] = assay: Cell cycle analysis by flow cytometry; type: cell-based, human; conditions: for G2/M population: 24 h (Fig. 3A)
Protocol: MGC-803 cells were incubated in the absence and presence of 28. Subsequently, the cells were fixed with 70% alcohol in PBS. The fixed cells were incubated with RNase (1 µg/mL) propidium iodide (50 µg/mL) for 2 h. Flow cytometry analysis was performed using BD FACS (Becton Dickinson, San Jose, CA, USA).

MGC-803 cells [6] = assay: Annexin V-FITC/PI apoptosis analysis by flow cytometry; type: cell-based, human; conditions: 24 h
Protocol: as §2, §3

[7] = system: three cancer cell lines (MGC-803, MCF-7, A549); assay: CCK-8 proliferation assay, three cancer cell lines together; type: cell-based; conditions: Homo sapiens, 48 h, read-out: IC50 values toward three cancer cell lines
Protocol: as §4, §5
Synthesized analogues used in the study were dissolved in 100% cell culture grade DMSO and the final concentration of DMSO as <0.1% for testing on cancer cell lines. […] The absorbance was measured using a microplate reader (BioTek Instrument, Inc. Vermont, USA) with a test wavelength of 450 nm. The absorbance levels were corrected against untreated control absorbance values. […]

tubulin = assay: In vitro tubulin polymerization assay; type: biochemical; conditions: 5.6 mg/ml tubulin, absorbance 340 nm, 37 °C; read-out: tubulin polymerization inhibition IC50
Protocol: The in vitro tubulin polymerization inhibitory activity of 28 was then evaluated. Purified and unpolymerized tubulin was incubated with 28 at indicated concentrations, and tubulin polymerization was measured by the method originally described by D. Bone et al.[46].
An amount of 5.6 mg/ml tubulin was resuspended in PEM buffer [80 mM PIPES (pH 6.9), 1 mM EGTA, 0.5 mM MgCl2, 1 mM […], 10.2% (v/v) glycerol] and then was preincubated with compound 28 or vehicle DMSO on ice. The reaction was monitored by a spectrophotometer in absorbance at 340 nm at 37 °C every 5 min. The final concentrations of 28 were listed as follows: 0, 1, 2, and 4 µM.

SMILES: COc1cc(N2C(=O)[C@H](c3cccs3)[C@H]2c2cccc(N=[N+]=[N-])c2)cc(OC)c1OC (relative stereo) [Compound 28, trans-4-(3-azidophenyl)-3-(thiophen-2-yl)-1-(3,4,5-trimethoxyphenyl)azetidin-2-one]
- formation of the EBI: β-tubulin adduct [1]: dose-dependently prevented the formation of the EBI: β-tubulin adduct
- average number of migrated cells in fields (MGC-803 cells [2]; 0.1 μM): 22.4
- average number of migrated cells in fields (MGC-803 cells [2]; 0.2 μM): 16.6
- expression of E-cadherin and ZO-1 (MGC-803 cells [3]): up-regulated
- expression of N-cadherin and vimentin (MGC-803 cells [3]): down-regulated
- expression of Bcl-2 (MGC-803 cells [4]): decreased
- expression of cleaved caspase-3, caspase-9 and PARP (MGC-803 cells [4]): increased
- protein expression of BAX (MGC-803 cells [4]): increased
- IC50 (A549 cells): 0.507 ± 0.052 µM
- cells at the G2/M phase (MGC-803 cells [5]; 0.1 μM, 12 h (Fig. 3C)): 12.63%
- G2/M population (MGC-803 cells [5]; 0.1 μM): 14.13%
- cells at the G2/M phase (MGC-803 cells [5]; 0.1 μM, 36 h (Fig. 3C)): 44.59%
- G2/M population (MGC-803 cells [5]; 0.2 μM): 23.42%
- G2/M population (MGC-803 cells [5]; 0.3 μM): 44.37%
- early apoptotic cells (MGC-803 cells [6]; 0.1 μM): 12.4%
- late apoptotic cells (MGC-803 cells [6]; 0.1 μM): 2.1%
- early apoptotic cells (MGC-803 cells [6]; 0.2 μM): 40.5%
- late apoptotic cells (MGC-803 cells [6]; 0.2 μM): 10.1%
- early apoptotic cells (MGC-803 cells [6]; 0.3 μM): 49.7%
- late apoptotic cells (MGC-803 cells [6]; 0.3 μM): 9.4%
- IC50 [7]: 0.106 to 0.507 µM
- IC50 (tubulin): 2.26 µM
